Assay results reported in patent US6251897A, “6-phenyltetrahydro-1,3-oxazin-2-one derivative and pharmaceutical composition containing the same” (Nikken Chemicals Co., LTD, priority 1996, dated 2001).

Test system: antigen-induced bronchospasm in guinea pig
Experiment: Inhibitory effect on antigen-induced bronchospasm (Konzett-Roessler, ovalbumin-sensitized)
Type: in vivo, guinea pig (Hartley male)
Conditions: Cavia porcellus; intravenous, 10 minutes before antigen (0.2 mg/kg OA i.v.); read-out: Action for suppressing antigen-induced bronchospasms ED50
Protocol: A Hartley male guinea pig was sensitized by intramuscular administration of […] Ovalbumin (OA) on first day and fourth day, and used after 24th day. A trachial canula was introduced in the guinea pig anesthetized with pentobarbital and artificial ventilation was performed 25 to 29 days after the first sensitization. The overflow of the ventilation was measured by the Konzett-Roessler method while 0.2 mg/kg OA were administered intravenously. The test compound was dissolved in polyethylene glycol 400 and intravenously administered 10 minutes before administration of the antigens.

SMILES	ED50 [mg/kg]
COc1ccc(C2CCNC(=O)O2)cc1OCC1CC1 (stereo not drawn) [Compound No. 4, 6-(3-cyclopropylmethyloxy-4-methoxyphenyl)-3,4,5,6-tetrahydro-2H-1,3-oxazin-2-one]	0.23
COc1ccc(C2(C)CCNC(=O)O2)cc1OC1CCCC1 (stereo not drawn) [Compound No. 6, 6-(3-cyclopentyloxy-4-methoxyphenyl)-6-methyl-3,4,5,6-tetrahydro-2H-1,3-oxazin-2-one]	0.3

Test system: Type IV PDE
Experiment: PDE inhibitory activity, type IV isozyme (3H-cAMP hydrolysis)
Type: biochemical
Conditions: partially purified from rat neutrophils, 30° C., 30 minutes
Protocol: Type I, III, IV, and V PDE isozymes were prepared to study the PDE inhibitory activities and selectivities with the compound of the invention [Trends Pharmacol. Sci., 12, 19-27 (1992)]. Type I PDE was purchased from Sigma Corp. Type III, IV, and V PDE isozymes were partially purified from rats platelets (Type III and V) or neutrophils (Type IV). Each enzyme source was homogenized in a buffer (pH 6.5) containing 20 mM bisTris, 2 mM EDTA (ethylenediamine tetraacetate), 0.1 mM PMSF (phenylmethylsulfonyl fluoride), 5 mM 2-mercaptoethanol, 0.001 mM pepstatin, and 0.01 mM leupeptin and was centrifuged at 30,000×G for 30 minutes to obtain a supernatant, which was applied to an ion exchange column (Q-sepharose First Flow, Pharmacia Corp.) and was eluted with 0 to 1M sodium acetate. Partially purified isozymes were identified by observing the effects of conventional inhibitors.
Each PDE isozyme and the test compound dissolved in DMSO (dimethyl sulfoxide) were added to 50 mM Tris-HCl buffer containing 5 mM magnesium chloride. ^3 H-cAMP (for type III and IV PDE) or ^3 H-cGMP (for type I and V PDE) were added as substrates and were reacted at 30° C. for 30 minutes. The reaction was terminated by placing the test tube in boiling water of 100° C. for 5 minutes. The nucleotides formed by PDE were broken down by 5'-nucleotidase to ^3 H-adenosine or ^3 H-guanosine. The unreacted substrate and reaction product were separated through an ion-exchange column (QAE sephadex, Pharmacia Corp.) The eluted ^3 H-nucleoside was measured for its radioactivity by a liquid scintillation counter. The inhibiting activities of the compound of the present invention are shown by the IC50 value (M). Further, the inhibitory activities of the test samples against Type I, III, and V are 1/10 or less than that against type IV.

SMILES	IC50 [nM]
COc1ccc(C2CCNC(=O)O2)cc1OCC1CC1 (stereo not drawn) [Compound No. 4, 6-(3-cyclopropylmethyloxy-4-methoxyphenyl)-3,4,5,6-tetrahydro-2H-1,3-oxazin-2-one]	3200
COc1ccc(C2(C)CCNC(=O)O2)cc1OC1CCCC1 (stereo not drawn) [Compound No. 6, 6-(3-cyclopentyloxy-4-methoxyphenyl)-6-methyl-3,4,5,6-tetrahydro-2H-1,3-oxazin-2-one]	1100
COc1ccc(C2(C)CCNC(=O)O2)cc1OCCCCCc1ccccc1 (stereo not drawn) [Compound No. 45, 6-[4-methoxy-3-(5-phenylpentyloxy)phenyl]-6-methyl-3,4,5,6-tetrahydro-2H-1,3-oxazin-2-one]	260
COc1ccc(C2(C)CCN(C)C(=O)O2)cc1OCCCCCc1ccccc1 (stereo not drawn) [Compound No. 47, 3,6-dimethyl-6-[4-methoxy-3-(5-phenylpentyloxy)phenyl]-3,4,5,6-tetrahydro-2H-1,3-oxazin-2-one]	220
COc1ccc(C2(C)CCN(C)C(=O)O2)cc1OCCc1ccccc1 (stereo not drawn) [Compound No. 48, 3. 6-dimethyl-6-(4-methoxy-3-phenethyloxyphenyl)-3,4,5,6-tetrahydro-2H-1,3-oxazin-2-one]	700
CCCCOc1cc(C2(C)CCNC(=O)O2)ccc1OC (stereo not drawn) [Compound No. 52, 6-(3-butoxy-4-methoxyphenyl)-6-methyl-3,4,5,6-tetrahydro-2H-1,3-oxazin-2-one]	1400
CCCCOc1cc(C2CCN(C)C(=O)O2)ccc1OC (stereo not drawn) [Compound No. 53, 6-(3-butoxy-4-methoxyphenyl)-3-methyl-3,4,5,6-tetrahydro-2H-1,3-oxazin-2-one]	9100
CCCCOc1cc(C2(C)CCN(C)C(=O)O2)ccc1OC (stereo not drawn) [Compound No. 54, 6-(3-butoxy-4-methoxyphenyl)-3,6-dimethyl-3,4,5,6-tetrahydro-2H-1,3-oxazin-2-one]	2000
COc1ccc(C2CCNC(=O)O2)cc1OCCc1ccccn1 (stereo not drawn) [Compound No. 55, 6-[4-methoxy-3-[2-(2-pyridyl)ethoxy]phenyl]-3,4,5,6-tetrahydro-2H-1,3-oxazin-2-one]	1700
COc1ccc(C2CCNC(=O)O2)cc1OC1c2ccccc2CCc2ccccc21 (stereo not drawn) [Compound No. 58, 6-[3-(10,11-dihydro-5H-dibenzo[a,d]cyclohepten-5-yloxy)-4-methoxyphenyl]-3,4,5,6-tetrahydro-2H-1,3-oxazin-2-one]	9400
COc1ccc(C2CCN(C)C(=O)O2)cc1OC1c2ccccc2CCc2ccccc21 (stereo not drawn) [Compound No. 59, 6-[3-(10,11-dihydro-5H-dibenzo[a,d]cyclohepten-5-yloxy)-4-methoxyphenyl]-3-methyl-3,4,5,6-tetrahydro-2H-1,3-oxazin-2-one]	27000
COc1ccc(C2CCNC(=O)O2)cc1OCCCN1CCN(Cc2ccccc2)CC1 (stereo not drawn) [Compound No. 60, 6-[3-[3-(4-benzyl-1-piperazinyl)propoxy]-4-methoxyphenyl]-3,4,5,6-tetrahydro-2H-1,3-oxazin-2-one]	52000
COc1ccc(C2CCN(C)C(=O)O2)cc1OCC1CCC1 (stereo not drawn) [Compound No. 62, 6-(3-cyclobutylmethyloxy-4-methoxyphenyl)-3-methyl-3,4,5,6-tetrahydro-2H-1,3-oxazin-2-one]	3300
COc1ccc(C2CCNC(=O)O2)cc1OCC1(C)CC1 (stereo not drawn) [Compound No. 63, 6-[4-methoxy-3-[(1-methylcyclopropyl)methyloxy]phenyl]-3,4,5,6-tetrahydro-2H-1,3-oxazin-2-one]	3400
CCC(CC)COc1cc(C2CCNC(=O)O2)ccc1OC (stereo not drawn) [Compound No. 69, 6-[3-(2-ethylbutoxy)-4-methoxyphenyl]-3,4,5,6-tetrahydro-2H-1,3-oxazin-2-one]	5000
CCC(CC)COc1cc(C2CCN(C)C(=O)O2)ccc1OC (stereo not drawn) [Compound No. 70, 6-[3-(2-ethylbutoxy)-4-methoxyphenyl]-3-methyl-3,4,5,6-tetrahydro-2H-1,3-oxazin-2-one]	3500

More lines, now with the values ahead:

IC50 [nM]	SMILES
4600	COc1ccc(C2CCN(C)C(=O)O2)cc1OCC1(C)CC1 (stereo not drawn) [Compound No. 64, 6-[4-methoxy-3-[(1-methylcyclopropyl)methyloxy]phenyl]-3-methyl-3,4,5,6-tetrahydro-2H-1,3-oxazin-2-one]
1100	COc1ccc(C2CCNC(=O)O2)cc1OCCc1cccc2ccccc12 (stereo not drawn) [Compound No. 67, 6-[4-methoxy-3-[2-(1-naphthyl)ethoxy]phenyl]-3,4,5,6-tetrahydro-2H-1,3-oxazin-2-one]
2600	COc1ccc(C2CCN(C)C(=O)O2)cc1OCCc1cccc2ccccc12 (stereo not drawn) [Compound No. 68, 6-[4-methoxy-3-[2-(1-naphthyl)ethoxy]phenyl]-3-methyl-3,4,5,6-tetrahydro-2H-1,3-oxazin-2-one]
8300	COc1ccc(C2CCNC(=O)O2)cc1OCCc1scnc1C (stereo not drawn) [Compound No. 72, 6-[4-methoxy-3-[2-(4-methyl-5-thiazolyl)ethoxy]phenyl]-3,4,5,6-tetrahydro-2H-1,3-oxazin-2-one]
1300	COc1ccc(C2CCNC(=O)O2)cc1OCCc1ccc(F)cc1 (stereo not drawn) [Compound No. 74, 6-[3-[2-(4-fluorophenyl)ethoxy]-4-methoxyphenyl]-3,4,5,6-tetrahydro-2H-1,3-oxazin-2-one]
1800	COc1ccc(C2CCN(C)C(=O)O2)cc1OCCc1ccc(F)cc1 (stereo not drawn) [Compound No. 75, 6-[3-[2-(4-fluorophenyl)ethoxy]-4-methoxyphenyl]-3-methyl-3,4,5,6-tetrahydro-2H-1,3-oxazin-2-one]
3300	COc1ccc(C2CCN(C)C(=O)O2)cc1OCC1CCCC1 (stereo not drawn) [Compound No. 77, 6-(3-cyclopentylmethyloxy-4-methoxyphenyl)-3-methyl-3,4,5,6-tetrahydro-2H-1,3-oxazin-2-one]
1500	COc1ccc(C2CCNC(=O)O2)cc1OC1(C)CCCC1 (stereo not drawn) [Compound No. 80, 6-[4-methoxy-3-(1-methylcyclopentyloxy)phenyl]-3,4,5,6-tetrahydro-2H-1,3-oxazin-2-one]
3400	COc1ccc(C2CCNC(=O)O2)cc1OCCOCc1ccccc1 (stereo not drawn) [Compound No. 83, 6-[3-(2-benzyloxyethoxy)-4-methoxyphenyl]-3,4,5,6-tetrahydro-2H-1,3-oxazin-2-one]
3100	COc1ccc(C2CCN(C)C(=O)O2)cc1OCCOCc1ccccc1 (stereo not drawn) [Compound No. 84, 6-[3-(2-benzyloxyethoxy)-4-methoxyphenyl]-3-methyl-3,4,5,6-tetrahydro-2H-1,3-oxazin-2-one]
780	COc1ccc(C2OC(=O)NCC2(C)C)cc1OC1CCCC1 (stereo not drawn) [Compound No. 85, 6-(3-cyclopentyloxy-4-methoxyphenyl)-5,5-dimethyl-3,4,5,6-tetrahydro-2H-1,3-oxazin-2-one]
860	COc1ccc(C2OC(=O)N(C)CC2(C)C)cc1OC1CCCC1 (stereo not drawn) [Compound No. 86, 6-(3-cyclopentyloxy-4-methoxyphenyl)-3,5,5-trimethyl-3,4,5,6-tetrahydro-2H-1,3-oxazin-2-one]
88	COc1ccc(C2OC(=O)NCC2(C)C)cc1OC1Cc2ccccc2C1 (stereo not drawn) [Compound No. 87, 5,5-dimethyl-6-[3-(2-indanyloxy)-4-methoxyphenyl]-3,4,5,6-tetrahydro-2H-1,3-oxazin-2-one]
190	COc1ccc(C2OC(=O)N(C)CC2(C)C)cc1OC1Cc2ccccc2C1 (stereo not drawn) [Compound No. 88, 6-[3-(2-indanyloxy)-4-methoxyphenyl]-3,5,5-trimethyl-3,4,5,6-tetrahydro-2H-1,3-oxazin-2-one]
35000	COc1ccc(C2CCNC(=O)O2)cc1OC1CCN(Cc2ccccc2)CC1 (stereo not drawn) [Compound No. 89, 6-[3-(1-benzyl-4-piperidyloxy)-4-methoxyphenyl]-3,4,5,6-tetrahydro-2H-1,3-oxazin-2-one]
1900	COc1ccc(C2CCNC(=O)O2)cc1OCCOCC1CC1 (stereo not drawn) [Compound No. 90, 6-[3-[2-(cyclopropylmethyloxy)ethoxy]-4-methoxyphenyl]-3,4,5,6-tetrahydro-2H-1,3-oxazin-2-one]
3700	COc1ccc(C2CCNC(=O)O2)cc1OC1CCOC1 (stereo not drawn) [Compound No. 93, 6-[3-(3-tetrahydrofuryloxy)-4-methoxyphenyl]-3,4,5,6-tetrahydro-2H-1,3-oxazin-2-one]
7300	COc1ccc(C2CCN(C)C(=O)O2)cc1OCCc1scnc1C (stereo not drawn) [compound 73, 6-[4-methoxy-3-[2-(4-methyl-5-thiazolyl)ethoxy]phenyl]-3-methyl-3,4,5,6-tetrahydro-2H-1,3-oxazin-2-one]
